Measurements from patent US8097616B2, “Process for preparation of high-purity meloxicam and meloxicam potassium salt” (Egis Gyogyszergyar Nyilvanosan Mukodo Reszvenytarsasag, priority 2004, dated 2012).

Test: solubility in water at the acidification pH
Format: physicochemical
Settings: acidified until pH 6

solubility in water: almost insoluble
Compound: Cc1cnc(NC(=O)C2=C(O)c3ccccc3S(=O)(=O)N2C)s1 [meloxicam, 4-hydroxy-2-methyl-N-(5-methyl-2-thiazolyl)-2H-1,2-benzothiazine-3-carboxamide-1,1-dioxide]
